According to patent US20260042771A1, “HETEROCYCLIC COMPOUND FOR INDUCING DEGRADATION OF G12V MUTANT KRAS PROTEIN” (Astellas Pharma Inc., priority 2022, published 2026):

Experiments:
RAS G12V = biological target: T1, RAS G12V (Homo sapiens, UniProt P01116, G12V); experiment: Test Example 1: RAS G12V degradation activity by Cell ELISA in PA-TU-8902; format: cell-based; conditions: for DC50: 50% degradation concentration of RAS G12V, PA-TU-8902 cells, 24 hours, Cell ELISA, corrected with β-actin; for Dmax: PaTu 8902, degradation rate at the most active concentration, DMSO = 0%, Example No. 7 at 3 μM = 100%, PA-TU-8902, 24 hours
T1 construct: host or cells: PA-TU-8902 human pancreatic cancer cells
Method: Test Example 1: Evaluation of RAS G12V Degradation Activity on Human KRAS G12V Mutant-Positive Pancreatic Cancer Line PA-TU-8902
The RAS G12V degradation activity of test compounds was evaluated by measuring the expression levels of RAS G12V by Cell ELISA.
PA-TU-8902 cells (DSMZ, ACC 179) were seeded at 36 μL per well on 384-well plates (from Greiner bio-one) to give 1.5×10^4 cells per well. As for the cell culture conditions, DMEM medium (from Sigma-Aldrich) containing 10% fetal bovine serum (from Cytiva) was used in the presence of 5% CO2 at 37° C.
The next day, the test compounds (10 points having final concentrations in the range of 3 μM to 0.1 nM), the compound of Example No. 7 having a final concentration of 3 μM as a positive control and dimethyl sulfoxide (DMSO), which was the solvent for the test compounds, as a negative control were diluted 100-fold with a fresh medium and were added at 4 μL per well. The cells were cultured for 24 hours.
The next day, the culture supernatant was removed, and 4% paraformaldehyde phosphate buffer (from FUJIFILM Wako Pure Chemical Corporation) was added at 20 μL per well. The plates were allowed to stand for 30 minutes at room temperature to thus immobilize the cells. Then, the supernatant was removed, and 0.1% Triton X-100 (from Amersham Biosciences)-containing Phosphate buffered saline (PBS) was added at 20 μL per well. After allowing to stand at room temperature for 10 minutes, the supernatant was removed. PBS was added at 25 μL per well, and the supernatant was removed to thus wash each well. The washing was performed twice in total. Subsequent washing operations were performed in the same manner. Next, the supernatant was removed, and 0.5% sodium dodecyl sulfate (SDS; from ThermoFisher Scientific)-containing PBS was added at 20 μL per well. After allowing to stand at room temperature for 10 minutes, the supernatant was removed by centrifugation of the plates. After washing with PBS, the supernatant was removed by centrifugation, and blocking solution (PVDF Blocking Reagent for Can Get Signal [from TOYOBO Co., Ltd.]) was added at 20 μL per well. After allowing to stand for 30 minutes at room temperature, the supernatant was removed by centrifugation and a solution obtained by diluting, as primary antibodies, anti-Ras (G12V Mutant Specific) antibody (Ras (G12V Mutant Specific) (D2H12) Rabbit mAb; from Cell Signaling Technology; 500-fold diluted) and […] (Anti-beta Actin antibody; from Abcam; 5,000-fold diluted) with Can Get Signal Solution 2 (from TOYOBO Co., Ltd.) was added at 15 μL per well. The plates were allowed to stand overnight at 4° C.
The next day, the supernatant was removed by centrifugation and washed with PBS. The supernatant was removed by centrifugation, a solution obtained by diluting, as secondary antibodies, anti-rabbit IgG antibody (IRDye 800CW Goat anti-Rabbit IgG; from LI-COR Biosciences) and anti-mouse IgG antibody (IRDye 680RD Donkey anti-Mouse IgG; from LI-COR Biosciences) 1,000-fold with Can Get Signal Solution 2 was added at 15 μL per well. After allowing to stand at room temperature for 1 hour, the supernatant was removed by centrifugation and washed with PBS. After removing the supernatant, the plates were dried with air at room temperature for 2 hours or more, and the 700 nm and 800 nm fluorescent signals were measured with Aerius (from LI-COR Biosciences).
The degradation rate of RAS G12V was calculated with the RAS G12V signaling value at the time of addition of DMSO taken as 0%, which was corrected with the signaling value of β-actin, and with the RAS G12V signaling value at the time of addition of the compound of Example No. 7 at a final concentration of 3 μM taken as 100%. […]

[1] = system: human KRAS G12V mutant-positive pancreatic cancer line PA-TU-8902; experiment: Test Example 3: non-anchorage-dependent cell growth inhibition, spheroid 3D culture; format: cell-based; conditions: PaTu 8902, 144 h, PA-TU-8902 spheroid 3D culture, 6 days; for IC50: CellTiter Glo 2.0
Method: Test Example 3: Evaluation of Non-Anchorage-Dependent Cell Growth Inhibitory Effect on Human KRAS G12V Mutant-Positive Pancreatic Cancer Line PA-TU-8902
The non-anchorage-dependent cell growth inhibitory effect of test compounds was evaluated by spheroid 3D cell culture.
PA-TU-8902 cells were seeded on low-cell-adhesive round bottom 384-well plates (PrimeSurface: from Sumitomo Bakelite) at 36 µL/well to give 5×10^2 cells per well. The cell culture was performed under the same conditions as in Test Example 1.
The next day, the test compounds (8 to 10 points having final concentrations in the range of 3 μM to 0.1 nM) and DMSO, which was the solvent for the test compounds, as a negative control were diluted 100-fold with a fresh medium and were added at 4 μL per well. After culturing in the presence of 5% CO2 at 37° C. for 6 days, CellTiter Glo 2.0 (from Promega) was added at 20 μL per well. After stirring with a plate mixer (from FINEPCR) at normal temperature for 1 hour, the luminescent signals were measured with ARVO X3 (from PerkinElmer).
With the signaling value in treatment with DMSO taken as 0% inhibition and with the signaling value in the medium alone without cells taken as 100% inhibition, the 50% inhibitory concentration values (IC50) were calculated by Sigmoid-Emax nonlinear regression analysis. The inhibition rate at 30 nM was calculated for Example No. 17.

T1 sequence (P01116 1-188 isoform P01116-2 G12V): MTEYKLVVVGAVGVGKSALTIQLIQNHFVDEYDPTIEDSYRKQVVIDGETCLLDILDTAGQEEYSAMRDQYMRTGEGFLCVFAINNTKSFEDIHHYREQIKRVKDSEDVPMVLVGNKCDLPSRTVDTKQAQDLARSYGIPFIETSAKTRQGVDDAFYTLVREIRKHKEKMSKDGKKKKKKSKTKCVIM

| Compound | DC50 (RAS G12V) | Dmax (RAS G12V) | IC50 [1] | inhibition at 0.03 µM ([1]; 30 nM, CellTiter Glo 2.0, read-out: inhibition rate at 30 nM) |
| --- | --- | --- | --- | --- |
| CO[C@@H](C)COc1nc(N2CC(C#N)C2)c2cc(C3CC3)c(-c3c(C)c(F)cc4[nH]ncc34)c(OCc3ccc(C(=O)N4CCN(Cc5ccc6c(c5)n(C)c(=O)n6C5CCC(=O)NC5=O)C[C@@H]4C)cc3)c2n1 (stereo partly drawn) [Example 2, 1-{(7 M)-6-cyclopropyl-8-({4-[(2S)-4-([1-(2,6-dioxopiperidin-3-yl)-3-methyl-2-oxo-2,3-dihydro-1H-benzimidazol-5-yl]methyl)-2-methylpiperazine-1-carbonyl]phenyl)methoxy)-7-(6-fluoro-5-methyl-1H-indazol-4-yl)-2-[(2S)-2-methoxypropoxy]quinazolin-4-yl)azetidine-3-carbonitrile] | 4 nM | 89% | 21 nM | – |
| CO[C@@H](C)COc1nc(N2CC[C@@H](N)[C@@H](F)C2)c2cc(C3CC3)c(-c3c(C)c(F)cc4[nH]ncc34)c(OCc3ccc(C(=O)N4CCN(Cc5ccc6c(c5)n(C)c(=O)n6C5CCC(=O)NC5=O)C[C@@H]4C)cc3)c2n1 (stereo partly drawn) [Example 3, 3-(5-{[(3S)-4-{4-[({4-[(3S,4R)-4-amino-3-fluoropiperidin-1-yl]-6-cyclopropyl-7-(6-fluoro-5-methyl-1H-indazol-4-yl)-2-[(2S)-2-methoxypropoxy]quinazolin-8-yl)oxy)methyl]benzoyl}-3-methylpiperazin-1-yl]methyl}-3-methyl-2-oxo-2,3-dihydro-1H-benzimidazol-1-yl)piperidine-2,6-dione] | 29 nM | 74% | 67 nM | – |
| CO[C@@H](C)COc1nc(NCc2cccnc2)c2cc(C3CC3)c(-c3c(C)c(F)cc4[nH]ncc34)c(OCc3ccc(C(=O)N4CCN(Cc5ccc6c(c5)n(C)c(=O)n6C5CCC(=O)NC5=O)C[C@@H]4C)cc3)c2n1 (stereo partly drawn) [Example 4] | 7 nM | 83% | 74 nM | – |
| Cc1c(F)cc2[nH]ncc2c1-c1c(C2CC2)cc2c(NC3CN(c4ncccn4)C3)nc(OCC(C)(C)CN(C)C)nc2c1OCc1ccc(C(=O)N2CCN(Cc3ccc4c(c3)n(C)c(=O)n4C3CCC(=O)NC3=O)C[C@@H]2C)cc1 (stereo partly drawn) [Example 8] | 5 nM | 81% | 48 nM | – |
| CO[C@@H](C)COc1cc(OC2CN(C(=O)NCCN(C)C)C2)c2cc(C3CC3)c(-c3c(C)c(F)cc4[nH]ncc34)c(OCc3ccc(C(=O)N4CCN(Cc5ccc6c(c5)n(C)c(=O)n6C5CCC(=O)NC5=O)C[C@@H]4C)cc3)c2n1 (stereo partly drawn) [Example 17] | 9 nM | 70% | – | 50% |
